In brackets after ≈: the same amount, converted by molar mass.
Columns and labels:
B. fragilis = experiment: Broth microdilution MIC; format: cell-based; conditions: Bacteroides fragilis, ATCC25285; B. fragilis ATCC 25285
P. granulosum [1] = experiment: Broth microdilution MIC; format: cell-based; conditions: P. granulosum ATCC 25746
F. magna [2] = experiment: Agar dilution MIC (CLSI reference method); format: cell-based; conditions: Finegoldia magna, ATCC15794; F. magna ATCC 15794
Enterococcus faecalis = experiment: MIC against ribosome-based resistance phenotypes; format: cell-based; conditions: ATCC29212, Enterococcus faecalis ATCC29212-P5, Lin-R (G2576U), read-out: Minimum Inhibitory Concentration (MIC)
Text: (§1) Furthermore, the antibiotic compounds can be assayed for anti-proliferative or anti-infective properties on a cellular level. For example, where the target organism is a microorganism, the activity of compounds of interest can be assayed by growing the microorganisms of interest in media either containing or lacking the compound. Growth inhibition can be indicative that the molecule could be acting as a protein synthesis inhibitor. […] For this purpose, a panel of bacterial strains can be assembled to include a variety of target pathogenic species, some containing resistance mechanisms that have been characterized. Use of such a panel of organisms permits the determination of structure-activity relationships not only in regards to potency and spectrum, but also with a view to obviating resistance mechanisms.

Staphylococcus aureus = experiment: MIC against ribosome-based resistance phenotypes; format: cell-based; conditions: Staphylococcus aureus A7820, Lin-R (G2576U) + Mac-R (ErmC), read-out: Minimum Inhibitory Concentration (MIC)
Text: as §1

[3] = Long-term rat safety study; format: in vivo; conditions: rat, in vivo, 100 mg/kg/day
Text: There was 100% survival in all dose groups.

S. aureus = experiment: Agar dilution MIC (CLSI reference method); format: cell-based; conditions: Staphylococcus aureus, ATCC29213; S. aureus ATCC 29213
Experimental: Susceptibility testing was performed by the agar dilution reference method (radezolid, linezolid, and clindamycin) and broth microdilution method (all agents) as described by the Clinical and Laboratory Standards Institute (CLSI).
For the agar dilution method, Brucella agar (BBL, 211086) was prepared according to the manufacturer's instructions and cooled to 48-50° C. in a water bath. Once the agar was cooled, it was supplemented with 10 mL of hemin+vitamin K1 Solution (Remel, R450951), 1 mL of 1 mg/mL vitamin K1 working solution (Sigma, V3501), and 50 mL laked sheep blood (Remel, R54004). The media was dispensed into 50 mL centrifuge tubes and held at 48-50° C. […] The diluted antimicrobial agents were added to the dispensed media, gently mixed, and poured into sterile petri dishes. Once hardened, the plates were held in anaerobic jars at room temperature and used the following day. […]
On the day of testing, a 0.5 McFarland equivalent of each isolate was prepared in Brucella broth with hemin+vitamin K1. […] BRU plates and those containing compound were incubated at 35° C. in an anaerobic environment for 24 hours, read, and re-incubated for an additional 24 hours followed by a final reading. […] Following incubation, MICs were determined as the lowest concentration showing a marked reduction in growth or no growth compared to the growth control plate.

Enterococcus faecium = experiment: MIC against ribosome-based resistance phenotypes; format: cell-based; conditions: Enterococcus faecium A6349; VanA + Lin-R (G2576U); read-out: Minimum Inhibitory Concentration (MIC)
Text: as §1, with “mechanisms. The assays can be performed in microtiter trays according to conventional methodologies as published by The National Committee for Clinical Laboratory Standards (NCCLS) guidelines (NCCLS. M7-A5-Methods for Dilution Antimicrobial Susceptibility Tests for Bacteria That Grow Aerobically; Approved Standard-Fifth Edition. NCCLS Document M100-S12/M7 (ISBN 1-56238-394-9)).” for “mechanisms.”

F. magna [4] = experiment: Broth microdilution MIC; format: cell-based; conditions: Finegoldia magna, ATCC15794; F. magna ATCC 15794
P. granulosum [5] = experiment: Agar dilution MIC (CLSI reference method); format: cell-based; conditions: P. granulosum ATCC 25746
G. vaginalis [6] = experiment: Agar dilution MIC (CLSI reference method); format: cell-based; conditions: Gardnerella vaginalis
G. vaginalis [7] = experiment: Broth microdilution MIC; format: cell-based; conditions: Gardnerella vaginalis
P. acnes = experiment: Agar dilution MIC (CLSI reference method); format: cell-based; conditions: Cutibacterium acnes
[8] = ATCC14018, G. vaginalis ATCC 14018
[9] = ATCC49145, G. vaginalis ATCC 49145

What does the source list for `CC(=O)NC[C@H]1CN(c2ccc(N3CCOCC3)c(F)c2)C(=O)O1` [Linezolid, linezolid]?
MIC (B. fragilis): 2 µg/mL (≈ 5.93 µM); MIC (P. granulosum [1]): 1 µg/mL (≈ 2.96 µM); MIC (F. magna [2]): 2 µg/mL (≈ 5.93 µM); MIC (Enterococcus faecalis): 32 µg/mL (≈ 94.9 µM); MIC (Staphylococcus aureus): 64 µg/mL; cellularity of sternal and femoral bone marrow [3]: decreased cellularity of sternal and femoral bone marrow; red cell mass, absolute reticulocyte and neutrophil counts [3]: decreased red cell mass, absolute reticulocyte and neutrophil counts; MIC (S. aureus): 2 µg/mL (≈ 5.93 µM); MIC (Enterococcus faecium): 16 µg/mL; MIC (F. magna [4]): 1 µg/mL (≈ 2.96 µM); MIC (P. granulosum [5]): 2 µg/mL (≈ 5.93 µM); MIC (G. vaginalis [6]; [8]): 0.5 µg/mL (≈ 1.48 µM); MIC (G. vaginalis [6]; [9]): 0.5 µg/mL (≈ 1.48 µM); MIC (G. vaginalis [7]; [8]): 0.5 µg/mL (≈ 1.48 µM); MIC (G. vaginalis [7]; [9]): 0.5 µg/mL (≈ 1.48 µM); MIC (P. acnes; ATCC11827, P. acnes ATCC 11827): 0.5 µg/mL (≈ 1.48 µM); MIC (P. acnes; ATCC11828, P. acnes ATCC 11828): 0.5 µg/mL (≈ 1.48 µM); MIC (P. acnes; ATCC29399, P. acnes ATCC 29399): 0.5 µg/mL (≈ 1.48 µM)
